Results taken from BigSolDB 2.1.

CC[C@H](CC[C@@H](C)[C@H]1CC[C@H]2[C@@H]3CC=C4C[C@@H](O)CC[C@]4(C)[C@H]3CC[C@]12C)C(C)C
solubility (mole fraction)
Settings	in acetone	in ethanol	in ethyl acetate	in methanol	in n-hexane
278.15 K	0.00274	0.0013	0.00447	0.000136	0.000862
283.15 K	0.00322	0.00158	0.0053	0.000167	0.00103
288.15 K	0.00379	0.0019	0.00627	0.000205	0.00123
293.15 K	0.00446	0.00229	0.00738	0.000248	0.00147
298.15 K	0.00525	0.00274	0.00872	0.000299	0.00173
303.15 K	0.00616	0.00328	0.0103	0.000357	0.00205
308.15 K	0.00724	0.00389	0.012	0.000427	0.0024
313.15 K	0.00852	0.0046	0.014	0.000509	0.0028
318.15 K	0.01	0.0054	0.0163	0.000606	0.00326
323.15 K	0.0118	0.00632	0.019	0.00072	0.00377
328.15 K	0.0139	0.00738	–	0.000855	0.00436
333.15 K	–	0.00856	–	–	0.005
